ChEMBL document CHEMBL5042519, “Design and synthesis of marine sesterterpene analogues as novel estrogen receptor α degraders for breast cancer treatment” (Eur J Med Chem, 2022)
Calls of active or inactive are those of the source. The rule behind the calls is not given here.

Experiments:
[1] = tested on: MCF7; assay: Antiproliferative activity against human MCF7 cells assessed as reduction in cell viability after 48 hrs by MTT assay; assay type: functional, cell-based; conditions: MCF7, 48 h
[2] = Selectivity index, ratio of IC50 for antiproliferative activity against human MCF-10A cells to IC50 for antiproliferative activity against human MDA-MB-231 cells by MTT assay; assay type: toxicity, cell-based; conditions: MCF-10A cells versus MDA-MB-231 cells, read-out: Ratio IC50
[3] = tested on: MDA-MB-231; assay: Antiproliferative activity against human MDA-MB-231 cells assessed as reduction in cell viability after 48 hrs by MTT assay; conditions: MDA-MB-231, 48 h
[4] = tested on: MCF7; assay: Antiproliferative activity against human MCF7/ADR cells assessed as reduction in cell viability after 48 hrs by MTT assay; assay type: functional, cell-based; conditions: MCF7, 48 h
[5] = molecular target: T1, Estrogen receptor (Homo sapiens) (UniProt P03372); assay: Induction of ERalpha degradation in human MCF7 cells assessed as decrease in ERalpha protein expression at 1 uM incubated for 24 hrs by Western blot analysis; assay type: cell-based
T1 sequence (whole entry): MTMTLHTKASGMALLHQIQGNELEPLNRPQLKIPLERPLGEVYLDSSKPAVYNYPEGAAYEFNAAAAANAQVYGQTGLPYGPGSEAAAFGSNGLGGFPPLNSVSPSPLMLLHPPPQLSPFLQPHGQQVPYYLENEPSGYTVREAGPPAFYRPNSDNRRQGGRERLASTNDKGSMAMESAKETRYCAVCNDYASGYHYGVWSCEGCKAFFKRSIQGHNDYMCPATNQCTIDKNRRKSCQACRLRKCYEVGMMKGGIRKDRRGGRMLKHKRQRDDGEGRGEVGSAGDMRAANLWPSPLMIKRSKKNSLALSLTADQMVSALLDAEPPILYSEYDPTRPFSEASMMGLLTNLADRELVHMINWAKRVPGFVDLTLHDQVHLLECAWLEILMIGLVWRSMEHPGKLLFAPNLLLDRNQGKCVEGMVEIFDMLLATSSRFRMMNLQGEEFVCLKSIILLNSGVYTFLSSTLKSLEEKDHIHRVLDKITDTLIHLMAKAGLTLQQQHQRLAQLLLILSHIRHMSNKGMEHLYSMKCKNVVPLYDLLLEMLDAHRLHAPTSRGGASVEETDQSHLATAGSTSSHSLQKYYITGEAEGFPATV

[6] = Antiproliferative activity against human MCF-10A cells assessed as reduction in cell viability after 48 hrs by MTT assay; assay type: toxicity, cell-based
[7] = Metabolic stability in rat plasma assessed as parent compound remaining incubated for 60 mins in presence of NADPH by UPLC-MS analysis; assay type: ADME, cell-free; conditions: read-out: Stability
[8] = Resistance index, ratio of IC50 for antiproliferative activity against human MCF7/ADR cells to IC50 for antiproliferative activity against human MCF7 cells; assay type: functional
[9] = Metabolic stability in rat liver microsomes assessed as assessed as intrinsic clearance incubated for 60 mins in presence of NADPH by UPLC-MS analysis; assay type: ADME, Microsome; conditions: read-out: CLH

Compound `CC(C)=C/C=C\[C@H](C)[C@H]1CC[C@]2(C)C[C@@H]3C(C)=CC(=O)[C@H]3/C(C=O)=C\C[C@@H]12` has an IC50 [1] of 3.92 µM, a selectivity ratio [2] of 0.94 and an IC50 [3] of 2.1 µM. For the same compound, the IC50 [4] was 2.48 µM, the Activity [5] was “Active” and the IC50 at 48 h [6] was 3.68 µM. For the same compound, the remaining at 1 h [7] was 97%, the “Ratio IC50” value [8] was 0.63 and the microsomal CLint [9] was 14.5 µL/min/mg.
